According to patent US6919441B2, “Polyamide-oligonucleotide derivatives, their preparation and use” (Aventis Pharma Deutschland GmbH, priority 1995, dated 2005):
In the oligonucleotide strings, read from the 5' end, every base follows the letter of its sugar. An asterisk marks phosphorothioate; unmarked linkages are phosphodiester. Other units and linkages are bracketed, terminal groups are in braces. A string of capitals states the bases alone. d = 2'-deoxy (DNA)

How the values were obtained:
[1] = system: complementary RNA (T = U); test: Melting temperature (TM) with complementary RNA; type: binding; conditions: ap; 3′-TGT AGT ACC AGC-5′ (T = U); 10 mM HEPES, 140 mM NaCl, pH 7.5
Procedure: (§1) The melting temperatures are determined using an HP 8452A diode array spectrophotometer, an HP 89090A Peltier element and the HP temperature control software Rev.B5.1 (from Hewlett Packard). Measurements are carried out in 0.5° C./min steps in 10 mM HEPES and 140 mM NaCl (pH 7.5) as buffer. The oligomer concentration is 0.5 to 1 OD260 per ml.

[2] = system: complementary DNA; test: Melting temperature (TM) with complementary DNA; type: binding; conditions: 10 mM HEPES, 140 mM NaCl, pH 7.5
Procedure: as §1

[3] = system: DNA double strand (homopurine motif); test: Binding as triplex-forming oligonucleotide to double-stranded DNA
[4] = system: COS cells; test: Cellular uptake by fluorescence labeling (fluorescence microscopy); type: cell-based; conditions: 0.1 mM oligomer
Procedure: COS cells are allowed to grow to confluence in Dulbecco's MEM supplemented with 10% FCS in 5 cm Petri dishes. The cells are washed twice with serum-free DMEM. A sterile needle is used to scratch an area of about 1 cm^2 in the middle of the Petri dish. The PNA/DNA oligomer solution (0.1 mM) to be investigated is applied to this area. Incubation is carried out at 37° C. under a CO2 atmosphere. The cells are investigated by fluorescence microscopy after 2, 4 and 16 hours. For this, the cells are washed four times with serum-free DMEM, covered with a glass slide and assessed under a fluorescence microscope or by phase contrast. A fluorescence-labeled PNA (without DNA part) F-(but)-tttt ttt-hex was investigated as comparison for the PNA/DNA hybrid molecules. After the cells had been incubated with this PNA for two hours, >90% of the cells show signs of pronounced morphological changes and cell death. […] The plasma membrane, the cytosol and the nucleus show no uptake of PNA. […] The situation is different with the DNA/PNA oligomers according to the invention. After incubation of the cells with the DNA/PNA oligomers for only two hours the cells show punctiform intracellular distribution of the PNA/DNA oligomers. The cells suffer no cell death even after prolonged incubation.

[5] = molecular target: DNA polymerase (Klenow fragment) (Escherichia coli, UniProt P00582); test: DNA polymerase reaction (primer function); type: biochemical; conditions: 22° C. and 37° C., 10% polyacrylamide gel
Source text: The following 81-mer oligodeoxynucleotide is used as template for the DNA polymerase reaction: • 5′-GCCCCAGGGAGAAGGCAACTGGACCGAAGGCGCTTGTGGAGAAGGAGTTCATAGCTGGGCTCCCTATAGTGAGTCGTATTA-3′(SEQ ID NO:50)
The sequence of the PNA/DNA primer is: • H-taa tac gac tca cta (5NH-T)-OH 3′(SEQ ID NO:62).
A corresponding oligodeoxynucleotide of the sequence 5′-TAA TAC GAC TCA CTA TAG-3′ (SEQ ID NO:51) is used as control primer.
The primer (0.15 nmol) and the template (0.15 nmol) in 5 μl of 10×PCR buffer ([…], 100 mM tris-HCl, pH 9, 1% Triton X-100, 15 MM MgCl2) are diluted with 35 μl of water and hybridized by heating to 95° C. and cooling. Then 10 μl of 2 mM dNTP mixture (nucleoside 5′-triphosphates) and 3 μl of DNA polymerase (Klenow fragment) are added, and the mixture is incubated at 22° C. and 37° C. for 0.5 hour each. The reaction solution is then analyzed on a 10% polyacrylamide gel (with 1% bis). pBR322/HaeIII digestion is loaded as marker. […] In both cases the double strand migrates […] than the template single strand in the gel electrophoresis.

[6] = molecular target: RNase L (cellular endoribonuclease L) (Homo sapiens, UniProt Q05823); conditions: HeLa cell extract, 37° C.
Procedure: An HeLa cell extract was prepared in order to stimulate the activity of cellular endoribonuclease L by the 2′,5′-tetraadenylate-PNA/DNA conjugates.
For investigation of this extract for endonuclease L, initially 0.3 OD of the RNA target sequence is heated with the particular PNA/DNA oligomers at 80° C. for 5 minutes and subsequently cooled to 37° C. for the hybridization. The duplex is mixed with 20 μl of the extract, 1.2 μl of glycerol and RNase L buffer and incubated at 37° C. The total volume is then 70 μl. For the kinetic investigations, samples are removed by pipette at the times of 0, 20 and 60 minutes and heated at 95° C. for 5 minutes to denature the enzymes. The samples are lyophilized in a Speedvac and analyzed by gel electrophoresis.

[7] = Stability of the oligomer in medium containing cells; type: in vitro ADME
Procedure: Vero cells are incubated in DMEM, 5% FCS, in 96-well microtiter plates at 37° C. for 24 hours. After removal of the medium, the cells are washed twice with serum-free DMEM. The radioactively labeled oligomer (10^6 cpm) is diluted with unlabeled oligomer to a concentration of 10 μM in serum, and the cells are incubated at 37° C. therewith. 150 μl portions are removed after 1, 7 and 24 hours (called “supernatant 1”). The cells in the wells of the microtiter plates are washed 7 times with 300 μl of fresh medium, and the combined washing media (called “supernatant 2”) are measured in a scintillation counter. Then 100 μl of trypsin solution are added, 30 seconds are allowed to elapse, and the supernatant is aspirated off. The cells are detached from the plate by incubating at 37° C. for 3 min. The detached cells are transferred into 1.5 ml Eppendorf tubes and centrifuged at 2,000 rpm for 6 minutes (“supernatant 3”). Supernatants 1 (5 μl), 2 and […] (0.5 ml) are each measured separately in a scintillation counter. From this is calculated the uptake of oligomer in pmol per 100,000 cells, with supernatant 3 representing the cell-bound oligomer fraction and the total of supernatants 1 and 2 representing the non-cell-bound oligomer fraction.
Supernatant 1 (10 μl) is mixed with 5 μl of 80% formamide (with Xylenecyanol and bromphenolblue), heated to 95° C. […]

[8] = system: Ha-ras protein expression; test: Anti-Ha-ras activity, Western blot in RS485 cells; type: cell-based
Procedure: RS485 cells (40-60% confluency) were either treated with the PNS_DNA chimera alone or transfected with PNA-DNA chimera using Lipofectin™ Reagent and the protocol from Life Technologies. Briefly, varying concentrations of oligomers were diluted in 100 μl of serum-free medium. In a separate tube Lipofectin was added to serum-free medium at a concentration of 7 μl/100 μl. After 30 minutes at room temperature, 100 μl of Lipofectin solution was mixed with 100 μl of ODN solution, incubated for an additional 15 minutes at room temperature, and mixed with 800 μl of serum-free medium. Cells were washed two times with serum-free medium, and the total solution (1 ml) containing the ODN-Lipofectin complex was overlayed onto the cells. After 6 hours, 1 ml of fresh medium containing 8 mM L-glutamine and 20% calf serum was added, and the cells were incubated for an additional 38 hours. Treated cells were washed with PBS, harvested with trypsin, and cellular proteins were extracted. The ras Protein was then determined by Western Blot Analysis. Total cellular protein was prepared by lysing cells in RIPA buffer with freshly added inhibitors (PMSF, aprotinin, sodium orthovanadate) and homogenizing through 21-gauge needles according to the protocol provided by Santa Cruz Biotechnology, Inc. The extracts were cleaned by centrifugation at 15,000 xg for 20 min at 4° C. and the protein concentration of the supernatant was determined. 40 μg of protein was size fractionated in 5-12.5% PAGE and electroblotted onto a nitrocellulose membrane. The membrane was incubated with primary antibody against Ha-Ras (C-20) (Santa Cruz Biotechnology, Inc.) and then with Horseradish Peroxidase-conjugated goat anti-rabbit immunoglobulin G. The ECL chemo-luminescent Western system (Amersham, Arlington Heights, Ill.) was used to detect secondary probes.

[9] = system: c-Fos protein expression; test: Inhibition of c-Fos protein expression in the rat (spinal cord superfusion); type: in vivo, Sprague-Dawley rat; conditions: 75 μM, 6 hours, heat stimulation
Source text: The determination takes place as described (Sandkühler et al. (1991) in: Proceedings of the VIth World Congress on Pain, Charlton and Woolf, Editors; Elsevier, Amsterdam; pages 313-318) by superfusion of the spinal cord. After laminectomy of a barbiturate-anesthetized Sprague-Dawley rat, a two-chamber container is formed from silicone to receive the antisense oligomer. One chamber is filled with the antisense PNA/DNA derivative, while the other chamber is filled with the control oligomer (concentration of each 75 μM). The superfusate is exchanged in each case after one hour. After superfusion for 6 hours, c-fos expression is stimulated by heat treatment (52° C.) of the rear legs.

[10] = system: VEGF (vascular endothelial growth factor); test: Inhibition of VEGF expression (ELISA of culture supernatants); type: cell-based, human
Procedure: Cell Culture: Normal human epidermal keratinocytes (NHEK cells) were grown in KGM growth medium (Clonetics).
Both human estrogen responsive breast tumor (MCF-7) cells and human estrogen-independent breast tumor (MDA-MB-231) cells were grown in IMEM (Biofluids) supplemented with 10% FBS (Gibco-BRL) and 1:100 antibiotic-antimycotic (Gibco-BRL).
Cellular assays: NHEK cells were seeded at a density of ˜50,000 cells per well in 48-well plates in 0.5 ml of KGM growth medium (Clonetics) and incubated in humidified incubators at 37° C. The following day, the growth medium was replaced with fresh medium containing the PNA-DNA chimera alone or as mixture with Cellfectin, a cationic lipid uptake enhancer for nucleic acids (Life Technologies). Incubation of cells with the oligomer formulation was followed by a wash after 4 hours and cells were returned to fresh unsupplemented medium. Sixteen and/or 40 hr post-stimulation the culture supernatants were removed and used for ELISA, or saved at −80° C. for future analysis. To assay MCF-7 or MDA-MB-231 cells. MCF-7/MDA-MB-231 cells were seeded at a density of ˜100,000 cells per well plates in 0.5 ml of IMEM and incubated under standard conditions. […] VEGF protein levels in the supernatant were determined using a commercially available ELISA kit (R&D Systems).

[11] = antiparallel, 3′-TAG CAG CAT AAT CAG-5′
[12] = parallel, 5′-TAG CAG CAT AAT CAG-3′

Chain of DNA polymerase (Klenow fragment) (P00582 324-928): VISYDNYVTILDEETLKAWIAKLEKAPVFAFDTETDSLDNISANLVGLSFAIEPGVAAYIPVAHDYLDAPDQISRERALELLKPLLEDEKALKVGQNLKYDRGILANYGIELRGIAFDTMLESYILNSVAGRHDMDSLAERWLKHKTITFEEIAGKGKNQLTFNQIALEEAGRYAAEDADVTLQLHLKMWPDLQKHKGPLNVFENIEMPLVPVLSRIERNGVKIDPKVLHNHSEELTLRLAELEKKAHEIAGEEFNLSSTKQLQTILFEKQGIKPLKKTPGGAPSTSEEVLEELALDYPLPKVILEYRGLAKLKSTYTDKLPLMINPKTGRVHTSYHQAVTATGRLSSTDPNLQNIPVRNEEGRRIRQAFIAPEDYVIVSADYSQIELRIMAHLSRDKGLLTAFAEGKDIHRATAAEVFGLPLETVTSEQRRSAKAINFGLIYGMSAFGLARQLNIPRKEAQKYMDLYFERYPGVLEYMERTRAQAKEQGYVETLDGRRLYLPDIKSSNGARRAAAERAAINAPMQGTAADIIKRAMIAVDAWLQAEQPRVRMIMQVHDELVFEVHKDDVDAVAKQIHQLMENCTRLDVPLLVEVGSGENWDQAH
Chain of RNase L (cellular endoribonuclease L) (Q05823 whole entry): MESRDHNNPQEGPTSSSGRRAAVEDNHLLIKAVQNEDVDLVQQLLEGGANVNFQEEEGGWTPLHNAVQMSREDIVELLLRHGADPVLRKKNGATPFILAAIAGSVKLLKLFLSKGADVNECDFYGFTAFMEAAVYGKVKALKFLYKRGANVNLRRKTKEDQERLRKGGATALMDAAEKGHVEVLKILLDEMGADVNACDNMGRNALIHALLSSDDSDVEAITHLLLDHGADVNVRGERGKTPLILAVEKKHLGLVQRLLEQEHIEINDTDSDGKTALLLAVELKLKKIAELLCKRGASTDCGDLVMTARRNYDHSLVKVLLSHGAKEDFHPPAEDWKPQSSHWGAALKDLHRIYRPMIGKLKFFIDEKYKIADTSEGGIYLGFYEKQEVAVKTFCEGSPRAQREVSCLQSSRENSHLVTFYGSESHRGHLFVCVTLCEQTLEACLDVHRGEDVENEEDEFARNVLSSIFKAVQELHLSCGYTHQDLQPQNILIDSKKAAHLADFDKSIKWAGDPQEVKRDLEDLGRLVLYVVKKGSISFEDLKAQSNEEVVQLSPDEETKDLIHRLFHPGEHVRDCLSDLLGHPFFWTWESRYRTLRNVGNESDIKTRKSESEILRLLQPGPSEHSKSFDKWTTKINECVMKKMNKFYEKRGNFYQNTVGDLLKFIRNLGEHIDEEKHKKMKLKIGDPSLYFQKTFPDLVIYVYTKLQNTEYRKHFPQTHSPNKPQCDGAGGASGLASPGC

## 5′-ACA TCA TGG TCG-3′ [5′-ACA TCA TGG TCG-3′ S-DNA] (dA*dC*dA*dT*dC*dA*dT*dG*dG*dT*dC*dG) [reference compound]
[1]
  TM with RNA (T = U): 43.8° ° C.
[2]; ap, 3′-TGT AGT ACC AGC-5′
  TM with DNA: 46.7° ° C.

## 5′-GG GGG GGG (Oeg(t)) ttt ttt ttt-hex [Example 39]
[3]
  binding as triplex-forming oligonucleotide to DNA double strand: high affinity

## F-(but)-tttt ttt-hex
[4]; a further two hours or prolonged incubation
  cell death on further/prolonged incubation: all the cells have died
[4]; incubated two hours
  cells showing pronounced morphological changes and cell death: > 90%
[4]; two hours
  intracellular uptake (fluorescence microscopy): no uptake

## 5′-GGG GGG GGG (but) ttt ttt-hex [Example 28]
[3]
  binding as triplex-forming oligonucleotide to DNA double strand: high affinity

## taa tac gac tca cta (5′HN-T) (TAATACGACTCACTA; listed as DNA, chemistry not fully specified) [Example 36, 15 PNA units and one nucleoside unit, primer for DNA polymerase]
[5]
  DNA polymerase reaction product with primer on 81-mer template (gel): migrates somewhat more quickly

## PS-rA(2′5′)rA(2′5′)rA(2′5′)rA-spacer-(Oeg(t)tc ctc ctg cgg-hex [Example 37]
[6]
  stimulation of RNase L: stimulates RNase L

## 5′-ACA TCA TGG TCG-3′ [5′-ACA TCA TGG TCG-3′ DNA] (ACATCATGGTCG; unmodified DNA) [natural DNA oligonucleotide, reference compound]
[1]
  TM with RNA (T = U): 48.6° ° C.
[2]; ap, 3′-TGT AGT ACC AGC-5′
  TM with DNA: 50.7° ° C.

## 5′-ATC GTC GTA TTA GTC-3′ (ATCGTCGTATTAGTC; DNA, backbone not given here) [natural DNA oligonucleotide (DNA · DNA duplex), reference compound]
[2]; [11]
  TM with DNA: TM = 50.5 °C

## 5′-ATC GTC GTA TT-(but)-agtc-hex [Example 17]
[2]; [11]
  TM with DNA: TM = 51.0 °C
[2]; [12]
  TM with DNA: TM < 20 °C

## 5′-TTT TTT TTT (but) ttt ttt-hex [Example 26]
[7]; after an incubation time of 24 hours in medium containing cells
  stable oligomer: 69%

## 5′-ATG-(Oeg(a))-cgg aata-hex [Example 52]
[8]
  inhibition of ha-ras expression (control oligonucleotides): did not inhibit

## A CAT CA (Oeg(t)) ggt cg-hex [Example 31]
[7]; medium containing cells
  half-life: 32 h
[9]
  inhibition of c-fos expression compared with corresponding DNA oligonucleotide and PNA oligomer: greater inhibition

## 5′-CSUSGAUSAG-(Oeg(a))-catccatg-hex [Example 54]
[10]; 1 μM, presence of Cellfectin (10 μg/ml)
  highest inhibition of VEGF expression: 43%
[10]; 0.1 to 0.4 μM, absence of Cellfectin
  inhibition of VEGF expression: 10-18%

## 5′-ATC GTC GTA TT-(Oeg(t))-agtc-hex [Example 18]
[2]; [11]
  TM with DNA: TM = 51.5 °C
[2]; [12]
  TM with DNA: TM < 20 °C

## 5′-TSASTS-(Oeg(t))-ccgtcat-hex [Example 51]
[8]; 1 μM, in the presence of lipofectin
  inhibition of ha-ras protein expression: almost complete inhibition

## 5′-ASTSGS-(Oeg(a))-cgg aata-hex [Example 53]
[8]
  inhibition of ha-ras expression (control oligonucleotides): did not inhibit

## (5′)-(Acetyl)-taa tac gac tca cta (eae(t) A-3′ [Example 65]
[5]
  DNA polymerase reaction product with primer on 81-mer template (gel): dNTP are polymerized
